This note sets out measurements from US7214386B2, “Method for the treatment and prevention of overweight in mammals” (priority 2002, dated 2007).

The nature of test [1]: Plasma insulin in rats (radioimmunoassay). To be noted: rats on high fat diet, after 2½ weeks of treatment versus after 1 week on the high fat diet.
Test [2] in a line: Plasma glucose in rats (oxidase-peroxidase method). To be noted: rats on high fat diet, after 2½ weeks of treatment versus after 1 week on the high fat diet.
Another test relates to 3T3-L1 cells. Briefly: Effect of dill extract on isoprenaline-stimulated lipolysis (glycerol formation) in differentiated 3T3-L1 cells. The class given is cell-based. To be noted: 24 hours incubation, glycerol formation of sample A divided by that of sample B (isoprenaline alone). As to the method:
3T3-L1 cells were grown in T75 flasks. The cells were detached by trypsin incubation (±5 min at 37° C.). After detachment, 4 ml lipolysis standard medium was added to the flask (DMEM; 10% fetal calf serum; 4.5 g/l D-glucose; 100 U/ml penicillin; 100 μg/ml streptomycin) and the cells were suspended therein. The cell suspension was then diluted in lipolysis standard medium to 50000 cells/ml (5000 cells/100 μl), and 100 μl of this diluted cell mix was transferred to a precoated well in a 96 wells plate. […] Thereafter the solution was removed). After incubation for 48 hours at 37° C., the medium was refreshed (removal of old medium and addition of 100 μl lipolysis standard medium) and the cells incubated at 37° C. After 72 hours, the supernatant was removed and 100 μl differentiation medium (5 μg/ml bovine insuline; 0.25 μM dexamethasone; 0.5 mM IBMX; in standard medium) was added. […] After 24 hours incubation at 37° C., the glycerol concentration in the supernatant was determined using a glycerol assay (Sigma Cat.no. 337) against a standard curve of glycerol in lipolysis standard medium. The relative lipolysis inhibiting activity of the dill extract was calculated by dividing the glycerol formation of sample A of interest by the glycerol formation of sample B.

Regarding `Cn1c(=O)c2c(ncn2C)n(C)c1=O` [caffeine], in test [1], the “plasma insulin levels (FIG. 3)” value is “no reduction”. Also, the “plasma glucose levels (FIG. 3)” value in test [2] was “significant reduction”. As to `CC(C)NCC(O)c1ccc(O)c(O)c1` (stereo not drawn) [isoprenaline], the “Relative lipolysis inhibiting effect” value in the test on 3T3-L1 cells amounted to 1.
